Among the test systems are SNB-75; Hs-578T; A498; CCRF-CEM; MDA-MB-435; OVCAR-8; HCT-116; SK-MEL-28; OVCAR-5; PC-3; HCT-15; SNB-19; NCI-H460; HOP-92; MOLT-4; MDA-MB-231; HCC 2998; T47D; OVCAR-4; KM-20L2.
Common to all, as to assay: NCI tumour cell line growth inhibition, 48 h

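Cells were grown in 96-well plates and exposed to each compound for 48 hours at five concentrations; endpoints were interpolated linearly between bracketing concentrations, or set to the highest concentration if not reached. GI50 is the concentration that inhibits growth by half.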 Activity calls are given as the source filed them. Rule as the data show it: active = GI50 up to about 1.1 µM and inactive = higher.

In the case of `Cc1cccc(C2NC(=O)c3ccccc3N2)c1` (stereo not given), the GI50 with SNB-75 is 4.5 µM (inactive); with Hs-578T it was 8.43 µM (inactive); with A498 it was 6.4 µM (inactive); with CCRF-CEM, 3.23 µM (inactive); in the experiment with MDA-MB-435, 0.399 µM (active); with OVCAR-8, 6.1 µM (inactive). Moreover, the GI50 is 3.28 µM (inactive) in the experiment on HCT-116; > 28.7 µM (inactive) with SK-MEL-28; 17.3 µM (inactive) in the experiment with OVCAR-5; 3.95 µM (inactive) in the experiment on PC-3; 2.85 µM with HCT-15; 11 µM (inactive) with SNB-19. In addition, the GI50 in the experiment with NCI-H460 was 3.3 µM (inactive); in the experiment on HOP-92, > 58.9 µM (inactive); with MOLT-4, 1.8 µM (inactive); in the experiment on MDA-MB-231, 25.8 µM (inactive); in the experiment on HCC 2998, 6.64 µM (inactive); in the experiment on T47D, > 100 µM (inactive). Besides, the GI50 in the experiment with OVCAR-4 is > 49.1 µM (inactive).
For the molecule `Clc1ccc2c(Cl)nc(-c3ccccc3)nc2c1`, the GI50 with SNB-75 is 17.7 µM (inactive); in the experiment with A498 it was 37.4 µM (inactive); in the experiment on CCRF-CEM, 22.9 µM (inactive); with OVCAR-8, 34 µM (inactive); with HCT-116, 27.4 µM (inactive); in the experiment on SK-MEL-28, 32.2 µM (inactive). Further, the GI50 in the experiment with OVCAR-5 was 51.8 µM (inactive); with SNB-19, 35.6 µM (inactive); with KM-20L2, 25.6 µM (inactive); with NCI-H460, 24.3 µM (inactive); with MOLT-4, 20.2 µM (inactive); in the experiment with HCC 2998 it was 34.8 µM (inactive).
In the case of `C=C1C(=O)O[C@@H]2C[C@]3(C)[C@@H](C[C@H]12)[C@](C)(O)CC[C@@H]3O`, the GI50 in the experiment with SNB-75 is 53.3 µM (inactive); in the experiment on CCRF-CEM, 33.5 µM (inactive); in the experiment with OVCAR-8, 36.6 µM (inactive); with HCT-116, 36 µM (inactive); in the experiment on SK-MEL-28 it was 65.2 µM (inactive); with OVCAR-5, > 100 µM (inactive). Further, the GI50 in the experiment on HCT-15 is 52.4 µM; in the experiment with SNB-19, > 100 µM (inactive); with KM-20L2 it was 38.9 µM (inactive); in the experiment with NCI-H460, 23.7 µM (inactive); with HOP-92, 81.3 µM (inactive); in the experiment on MOLT-4, 57.1 µM (inactive). Besides, the GI50 in the experiment with HCC 2998 and with OVCAR-4 was > 100 µM (inactive) in each case.
For `O=Cc1cn(C(=O)c2ccccc2)c2ccccc12`, the GI50 in the experiment on SNB-75 was 43.6 µM (inactive); in the experiment on A498 it was > 100 µM (inactive); with CCRF-CEM, 43.2 µM (inactive); with OVCAR-8, > 100 µM (inactive); in the experiment with HCT-116, 43.2 µM (inactive); in the experiment with SK-MEL-28 it was > 100 µM (inactive). The GI50 in the experiment with OVCAR-5 was > 100 µM (inactive); with HCT-15, greater than 100 µM; in the experiment on KM-20L2, > 100 µM (inactive); in the experiment on NCI-H460 it was > 100 µM (inactive); with MOLT-4, 54.2 µM (inactive); in the experiment on HCC 2998, > 100 µM (inactive). Moreover, in the experiment on OVCAR-4, the GI50 was > 100 µM (inactive).
`O=C1C(Cl)C(c2cc3cc(Br)ccc3nc2Cl)N1c1c(Cl)cccc1Cl` (stereo not given): the GI50 is > 25 µM (inactive) in the experiment with SNB-75; > 25 µM (inactive) in the experiment on Hs-578T; > 25 µM (inactive) in the experiment on A498; 7.53 µM (inactive) in the experiment on CCRF-CEM; 8.67 µM (inactive) in the experiment with MDA-MB-435; 10.8 µM (inactive) in the experiment on OVCAR-8. The GI50 is 9.12 µM (inactive) in the experiment with HCT-116; > 25 µM (inactive) in the experiment on SK-MEL-28; > 25 µM (inactive) in the experiment with OVCAR-5; 20 µM (inactive) with PC-3; 13.4 µM with HCT-15; > 25 µM (inactive) in the experiment on SNB-19. The GI50 is > 25 µM (inactive) in the experiment with NCI-H460; 9.79 µM (inactive) with HOP-92; 4.9 µM (inactive) with MOLT-4; 19.3 µM (inactive) in the experiment on MDA-MB-231; 23.8 µM (inactive) with HCC 2998; 11.6 µM (inactive) with T47D. In addition, in the experiment with OVCAR-4, the GI50 was 5.46 µM (inactive).
For `Cn1c(=O)sc2cc(C(=S)N3CCOCC3)ccc21`, the GI50 in the experiment with SNB-75 is > 34 µM (inactive); in the experiment on Hs-578T, > 41 µM (inactive); in the experiment with A498, > 100 µM (inactive); with CCRF-CEM it was 28.6 µM (inactive); in the experiment on MDA-MB-435, > 100 µM (inactive); in the experiment with OVCAR-8, > 47.1 µM (inactive). The GI50 with HCT-116 was > 100 µM (inactive); in the experiment on SK-MEL-28 it was > 100 µM (inactive); with OVCAR-5 it was > 100 µM (inactive); with PC-3, > 100 µM (inactive); in the experiment on HCT-15, greater than 92.3 µM; in the experiment with SNB-19 it was > 100 µM (inactive). The GI50 in the experiment with NCI-H460 was > 100 µM (inactive); in the experiment on HOP-92, 9.89 µM (inactive); with MOLT-4, 39.9 µM (inactive); in the experiment on MDA-MB-231, > 100 µM (inactive); in the experiment on HCC 2998, > 100 µM (inactive); in the experiment with T47D, > 100 µM (inactive). Besides, the GI50 with OVCAR-4 is > 100 µM (inactive).
For `COC(=O)C(Cc1nc2ccccc2nc1O)C(=O)C(=O)Nc1ccc(F)cc1` (stereo not given), the GI50 is 28.8 µM (inactive) in the experiment on SNB-75; 27.3 µM (inactive) in the experiment on CCRF-CEM; 20 µM (inactive) with OVCAR-8; 41.2 µM (inactive) in the experiment with HCT-116; 27.4 µM (inactive) in the experiment with SK-MEL-28; greater than 100 µM in the experiment on HCT-15. Also, the GI50 in the experiment on SNB-19 was > 100 µM (inactive); in the experiment with KM-20L2 it was > 100 µM (inactive); with NCI-H460, > 100 µM (inactive); in the experiment on HOP-92, 20.8 µM (inactive); with MOLT-4, 58.6 µM (inactive); with HCC 2998, > 100 µM (inactive). Moreover, the GI50 in the experiment on OVCAR-4 was 77.3 µM (inactive).
Turning to `COc1ccc(/C=C/C(=N\NC(=O)c2ccccc2)c2sc(Nc3ccc([N+](=O)[O-])cc3)nc2C)cc1OC`, the GI50 in the experiment with SNB-75 is 5.57 µM (inactive); with CCRF-CEM, 2.34 µM (inactive); in the experiment with OVCAR-8, 9.57 µM (inactive); in the experiment on HCT-116, 7.31 µM (inactive); with SK-MEL-28, 21.1 µM (inactive); in the experiment on OVCAR-5, 27.7 µM (inactive). The GI50 is 7.89 µM in the experiment on HCT-15; 12.4 µM (inactive) in the experiment on SNB-19; 8.67 µM (inactive) in the experiment with KM-20L2; 16.5 µM (inactive) in the experiment with NCI-H460; < 0.01 µM (active) in the experiment on HOP-92; 2.77 µM (inactive) in the experiment on MOLT-4. Further, the GI50 is 29.6 µM (inactive) with HCC 2998 and 11.6 µM (inactive) in the experiment with OVCAR-4.
For the molecule `Cc1ccc(C(=O)CC2=Nc3nnc(CCCCCCCc4nnc5n4C(=O)C(CC(=O)c4ccc(C)cc4)=N5)n3C2=O)cc1`, the GI50 in the experiment on SNB-75 was 24.2 µM (inactive); with CCRF-CEM, > 100 µM (inactive); in the experiment with OVCAR-8, > 100 µM (inactive); in the experiment with HCT-116 it was > 100 µM (inactive); in the experiment on SK-MEL-28, > 100 µM (inactive); with OVCAR-5, > 100 µM (inactive). The GI50 is greater than 100 µM in the experiment with HCT-15; > 100 µM (inactive) in the experiment with SNB-19; > 100 µM (inactive) in the experiment with KM-20L2; > 100 µM (inactive) with NCI-H460; > 100 µM (inactive) in the experiment with MOLT-4; > 100 µM (inactive) with HCC 2998. Moreover, the GI50 in the experiment on OVCAR-4 is > 100 µM (inactive).
`N#CC1(C#N)C2=C(CCCC2)NC(c2ccc(Br)cc2)C1(C#N)C#N` (stereo not given): the GI50 was 15.7 µM (inactive) in the experiment on SNB-75; 17.1 µM (inactive) in the experiment with Hs-578T; 19 µM (inactive) with A498; 0.226 µM (active) in the experiment with CCRF-CEM; 3.68 µM (inactive) in the experiment on MDA-MB-435; 2.7 µM (inactive) in the experiment on OVCAR-8. Further, the GI50 is 1.84 µM (inactive) in the experiment on HCT-116; 12.6 µM (inactive) in the experiment with SK-MEL-28; 9.95 µM (inactive) in the experiment on OVCAR-5; 13.7 µM (inactive) in the experiment with PC-3; 2.42 µM with HCT-15; 16.5 µM (inactive) with SNB-19. Moreover, the GI50 with NCI-H460 is 24.1 µM (inactive); with HOP-92 it was 4.76 µM (inactive); in the experiment with MOLT-4 it was 0.384 µM (active); in the experiment with MDA-MB-231, 11.5 µM (inactive); in the experiment with HCC 2998 it was 20.5 µM (inactive); in the experiment on T47D it was 2.26 µM (inactive). Besides, the GI50 in the experiment on OVCAR-4 was 7.76 µM (inactive).
Turning to `CCOC(=O)CC(=O)ON(C)C(=O)Cc1ccccc1`, the GI50 is > 100 µM (inactive) in the experiment with A498; > 100 µM (inactive) in the experiment on CCRF-CEM; > 100 µM (inactive) in the experiment with OVCAR-8; > 100 µM (inactive) in the experiment with HCT-116; > 100 µM (inactive) with OVCAR-5; greater than 100 µM in the experiment on HCT-15. Besides, the GI50 in the experiment with SNB-19, with KM-20L2, in the experiment with NCI-H460 and in the experiment on OVCAR-4 was > 100 µM (inactive) in each case.
For the molecule `C[P+](C)(C)c1ccccc1`, the GI50 with SNB-75, in the experiment on CCRF-CEM, in the experiment with OVCAR-8, with HCT-116, in the experiment on SK-MEL-28 and in the experiment on OVCAR-5 was > 100 µM (inactive) each time. Moreover, the GI50 with HCT-15 was greater than 100 µM; with SNB-19, > 100 µM (inactive); with KM-20L2, > 100 µM (inactive); in the experiment on NCI-H460, > 100 µM (inactive); with HOP-92, > 100 µM (inactive); in the experiment on MOLT-4, > 100 µM (inactive). Moreover, the GI50 in the experiment on HCC 2998 and in the experiment on OVCAR-4 was > 100 µM (inactive) throughout.
For `Cc1cc(O)nc(NNC(C#N)c2cccc(O)c2)n1` (stereo not given), the GI50 with SNB-75, with CCRF-CEM, in the experiment on OVCAR-8, with HCT-116, with SK-MEL-28 and with OVCAR-5 was > 100 µM (inactive) each time. Further, the GI50 is greater than 100 µM with HCT-15; > 100 µM (inactive) with KM-20L2; > 100 µM (inactive) in the experiment on NCI-H460; > 100 µM (inactive) in the experiment on HOP-92; > 100 µM (inactive) with MOLT-4; > 100 µM (inactive) in the experiment on OVCAR-4.
`O=C(c1ccc(O)cc1O)C1C(c2ccc(O)cc2)OC(c2ccc(O)cc2)C1C(=O)c1ccc(O)cc1O` (stereo not given): the GI50 was 16.6 µM (inactive) in the experiment with SNB-75; 21.8 µM (inactive) in the experiment on OVCAR-8; 19.4 µM (inactive) in the experiment with SK-MEL-28; 12.6 µM (inactive) in the experiment on OVCAR-5; 20.6 µM (inactive) in the experiment with SNB-19; 71 µM (inactive) with KM-20L2. Besides, the GI50 in the experiment on NCI-H460 is 42.8 µM (inactive); in the experiment with HCC 2998 it was 13.8 µM (inactive); with OVCAR-4, 28.4 µM (inactive).

Source of the values: ChEMBL document CHEMBL1201862, “PubChem BioAssay data set” (2004).
